Measurements published in patent publication US20230416168A1 (EUROCHEM ANTWERPEN, priority 2020, published 2023).
Entries after “also recorded” stand apart in the source; their conditions may differ.

Key:
[1] = system: Nitrosomonas europaea; test: Nitrification inhibition assay with Nitrosomonas europaea (nitrite level after 24 h); format: cell-based; conditions: for IC50 / activity at 100 µM: Nitrosomonas europaea; for IC50: 8-point dose response, 2 to 100 μM, read-out: IC50; for activity at 100 µM: tested concentration 100 μM, 24 h, normalized to DMSO (100%) and 100 μM DMP (0%), read-out: Nitrification (%) at tested concentration (0 = maximum activity)
Experimental: (§1) The compounds of formula (I) and (II) and (III)/(IV) were tested for their nitrification inhibition effect in two screens, using assays with the nitrifying bacteria N. europaea and N. multiformis. In practice, ammonium and candidate nitrification inhibitors (at 100 μM) were added to a dense bacterial culture in multiwell culture plates and after 24 h of incubation, the nitrite level was measured. To normalize for differences between batches of cultures and multiwell culture plates, for each well a relative nitrification was calculated that was normalized towards both the negative and positive controls (see “Material and Methods” below for full details).
(§2) Nitrite (NO2−) was measured using the Griess reagent (Product number: G4410, Griess reagent (modified), Sigma-Aldrich). Equal volumes of the sample or a diluted sample and the Griess reagent were mixed a transparent flat bottom multi-well plate and incubated in the dark at room temperature for 10 minutes. Absorbance values at 540 nm were measured spectrophotometrically (EnVision, Perkin Elmer®) and used to calculate the [NO2−] by use of a standard curve.
To prepare a high-throughput nitrification inhibition assay using N. europaea, late-log phase cultures were subcultivated two days before the assay. Just before the assay, the cultures were 5 times overconcentrated with fresh growth medium after centrifugation (4000 rpm, 15 min, 5° C.) in 50 mL centrifuge tubes (Cat. No. 430829, CentriStar™ Conical Centrifuge Tubes, Corning®). Per batch, all the cultures were pooled in one sterile Schott bottle and subsequently dispensed into 384-well plates (Cat. No. 781086, CELL-STAR® plate, Greiner Bio-One; 50 μl/well) by use of a dispenser (Multidrop™ Combi Reagent Dispenser, Thermo Scientific™) that was first flushed with growth medium. Specifically for the high-throughput screen for new nitrification inhibitors, 0.5 μl of 99.99% DMSO (negative control—final concentration 1%) was added to the outer two columns on the left side of the plate and 0.5 μl of 10 mM DMP (3,4-dimethylpyrazole, positive control—final concentration 100 μM) was added to the outer two columns on the right side manually. Finally, 0.5 μl of candidate nitrification inhibitors (5 mM stock solutions in 99.99% DMSO—final concentration 50 μM) were added to the central wells using a pin tool on a Tecan robot (Freedom EVO®, Tecan). In between additions, the pins were washed in sequence with 99.5% DMSO, MilliQ water and 100% ethanol and air-dried. All plates were separately wrapped in Parafilm. Stacks of 4 plates were put on top of a 96-well plate filled with 100 μl MilliQ per well, covered with aluminum foil and shaken at 150 rpm at 28° C. 24 h later, NO2− production was assessed. For this, the samples were first 200 times diluted by pipetting 1.5 μl of samples into 300 μl of fresh growth medium in intermediate plates (Cat. No. 353077, Falcon® 96-well Clear Round Bottom Microplate, Corning®), to then mix 15 μl of the diluted samples with 15 μl Griess reagent in the wells of a transparent, flat bottom 384-well plate (Cat. No. X^7001, Low Profile Microplate, Molecular Devices) that was measured spectrophotometrically at 540 nm (EnVision, Perkin Elmer®).
(§3) To assess the efficacy of the compounds (in terms of nitrification inhibition) and to enable comparison between plates and batches of cultures, we calculated the relative nitrification. More in detail, all nitrite results were normalized towards both a negative control, containing no compound, and a positive control, containing the benchmark (100 μM DMP), using Equation 1. This normalization was done per multi-well plate and each plate contained 32 positive and 32 negative controls.
IC50 values, that is the concentration that inhibits 50% of the nitrification, were calculated after fitting a logistic curve to 8-point dose response data, using doses between 2 and 100 μM with 1.75 fold steps. […]

[2] = system: Merelbeke soil; test: In soil nitrification inhibition assay, Merelbeke soil; conditions: for inhibition of ammonium consumption in soil, in words: 50 μM, one week of treatment; for inhibition at 50 µM: soil, 168 h, 7 days, read-out: % Nitrification inhibition in soil (7 days of incubation, Merelbeke soil)
Experimental: Top layer (0 to 10 cm) soil samples were collected from different fields in Belgium (Merelbeke and Moorslede). Vegetation on the field trial was removed and samples were taken from different plots. All soil samples were mixed and sieved (mesh size 2.8 mm) to filter large debris and homogenize soil. The soil was stored at 5° C. in plastic containers covered with Saran foil to prevent changes in microbial community composition and to maintain the original soil water content. Soil water content was determined by drying 20 g soil for 48 h in a 60° C. oven and measuring weight before and after drying. Based on the soil water content (±20%), compound solutions were prepared so that addition of 200 μl compound and 200 μl NH4Cl solution would result in a final compound concentration of 50 μM and a final NH4^+ concentration of 10 mM. Per treatment, 5 small pots were filled with 20 g soil. Next, the soil was treated first with the respective compound solution and then with the NH4Cl solution. Per tray, positive (50 μM DMP) and negative controls (DMSO) were included. Pots were incubated at 21° C. (6 a.m. to 10 p.m. light) for 7 days. Demineralized water was added to the soil every 2 to 3 days to a soil weight of 20 g. In the end, each sample of 20 g soil was dissolved in 100 ml 1M KCl and shaken for 1 hour, followed by filtration through Whatmann® paper. The filtrate was used to measure pH, NH4^+ and NO3− concentrations. The nitrification inhibitors were applied in a nitrification inhibition assay using agricultural soil. In practice, ammonium with or without the new nitrification inhibitors was added to soil from a field in Merelbeke (Belgium). The ammonium level was measured at the start of the experiment and at the end of the experiment, after one week of incubation. A nitrification inhibition percentage was calculated by comparing the reduction in ammonium level with the nitrification inhibitor to the reduction in ammonium without the nitrification inhibitor. Ammonium was added to soil with a high nitrification activity and treated with the nitrification inhibitors (final concentration of 50 μM). […] This validates that the new nitrification inhibitors are effectively inhibiting ammonia oxidation by soil communities.

[3] = system: Nitrosospira multiformis; test: Nitrification inhibition assay with Nitrosospira multiformis (nitrite level after 24 h); format: cell-based; conditions: for IC50 / activity at 100 µM: Nitrosospira multiformis; for IC50: 8-point dose response, 2 to 100 μM, read-out: IC50; for activity at 100 µM: tested concentration 100 μM, 24 h, normalized to DMSO (100%) and 100 μM DMP (0%), read-out: Nitrification at tested concentration (0 = maximum activity)
Experimental: as §1, §2
Cultures were first 5 times overconcentrated in fresh 181-medium by centrifugation (4000 rpm, 15 min, 5° C.) in 50 mL centrifuge tubes (Cat. No. 430829, CentriStar™ Conical Centrifuge Tubes, Corning®). Per batch, all the cultures were pooled in one sterile Schott bottle and subsequently dispensed in 384-well plates (Cat. No. 781086, CELLSTAR® plate, Greiner BioOne; 50 μl/well) by use of a dispenser (Multidrop™ Combi Reagent Dispenser, Thermo Scientific™) that was first flushed with 181-medium. 0.5 μl of 99.99% DMSO (negative control—final concentration […] was added to the outer two columns on the left side of the plate and 0.5 μl of 10 mM DMP (3,4-dimethylpyrazole, positive control—final concentration 100 μM) was added to the outer two columns on the right side manually. Finally, 0.5 μl of candidate nitrification inhibitors (5 mM stock solutions in 99.99% DMSO—final concentration 50 μM) were added to the central wells using a pin tool on a Tecan robot (Freedom EVO®, Tecan). In between additions, the pins were washed in sequence with 99.5% DMSO, MilliQ water and 100% ethanol and air-dried. All plates were separately wrapped in Parafilm. Stacks of 4 plates were put on top of a 96-well plate filled with 100 μl MilliQ per well, covered with aluminum foil and shaken (±150 rpm) at 30° C. 24 h later, NO2− production was assessed. For this, the samples were first 100 times diluted by pipetting 3 μl of samples into 300 μl fresh growth medium in intermediate plates (Cat. No. 353077, Falcon® 96-well Clear Round Bottom Microplate, Corning®) to then mix 15 μl of the diluted samples with 15 μl Griess reagent in the wells of a transparent, flat bottom 384-well plate (Cat. No. X^7001, Low Profile Microplate, Molecular Devices) that was measured spectrophotometrically at 540 nm (EnVision, Perkin Elmer®).
as §3
IC50 values, that is the concentration that inhibits 50% of the nitrification, were calculated after fitting a logistic curve to 8-point dose response data, using doses between 2 and 100 μM with 1.75 fold steps. If a concentration of 2 μM already inhibited nitrification, the IC50 value could not be calculated. In that case, IC50 values represent the dose that gives inhibition closest to 50%.
The compounds of formula (I) and (II) were tested for their nitrification inhibition effect in two screens, using assays with the nitrifying bacteria N. europaea and N. multiformis. […]

[4] = system: NH3 or NH2OH oxidation in N. europaea cells; test: Nitrosomonas europaea ammonia vs. hydroxylamine oxidation assay; format: cell-based; conditions: for Nitrification from NH2OH (% compared to DMSO): 1 mM NH2OH as N-source; for Nitrification from NH2OH (% compared to DMSO) / Nitrification from NH3 (% compared to DMSO): compounds 50 μM, NO2- after 30 min; for Nitrification from NH3 (% compared to DMSO): NH4+ 1 mM as N-source
Experimental: Two days old, late-log phase cultures with a NO2− concentration between 10 and 20 mM were washed 3 times in fresh growth medium (without N) and finally 4 times overconcentrated via centrifugation (4000 rpm, 15 min, 4° C.). Transparent, flat bottom 96-well plate (Cat. No. 353072, Falcon® 96 Well Clear Flat Bottom Microplate, Corning®) were filled with 150 μl culture per well using a dispenser (Multidrop™ Combi Reagent Dispenser, Thermo Scientific™). Compounds (final concentration 50 μM) were added in triplicate to the multi-well plate by use of a Tecan robot (Freedom EVO®, Tecan). Thiourea (positive control for inhibition of NH3 oxidation—final concentration 100 μM) and phenylhydrazine hydrochloride (positive control for inhibition of NH2OH oxidation—final concentration 1 mM) were added to the outer two columns. Each plate was made in duplicate to add either 500 μM (NH4)2SO4 (final [NH4+]=1 mM) or 1 mM NH2OH. All plates were separately wrapped in Parafilm. Stacks of 4 plates were put on top of a 96-well plate filled with 100 μl MilliQ per well, covered with aluminum foil and shaken (±150 rpm) at 28° C. To prevent read-out of secondary effects on NO2− production, NO2− was measured only 30 min later. For this, the samples were first 2 times diluted by pipetting 15 μl in 15 μl fresh growth medium in 96-well intermediate plates (Cat. Ref. PCR-96-FS-C, 96-well PCR Microplate, Axygen®) to then mix 15 μl of the diluted samples with 15 μl Griess reagent in the wells of a transparent, flat bottom 384-well plate (Cat. No. X^7001, Low Profile Microplate, Molecular Devices) that was measured spectrophotometrically at 540 nm (EnVision, Perkin Elmer®).
To get insights on the targeted metabolic pathway and to discriminate between compounds that specifically affect NH3 oxidation or that affect another pathway, three representative novel nitrification inhibitors (Examples 1, 5 and 6) were tested in the “ammonia vs hydroxylamine oxidation assay” in which NO2− production from NH3 was compared with NO2− production from NH2OH.

CCC1CCCCN1C(=O)CSC1=NCCS1 (stereo not drawn) [Example 9]
IC50 [1]: > 100 µM | activity at 100 µM [1]: 68% | inhibition of ammonium consumption in soil, in words [2]: significant inhibition | inhibition at 50 µM [2]: 10% | IC50 [3]: < 6 µM | activity at 100 µM [3]: 0%

Cc1c[nH]nc1C [Example C1, 3,4-dimethylpyrazole, reference compound]
IC50 [1]: 6 µM | activity at 100 µM [1]: 0% | Nitrification from NH2OH (% compared to DMSO) [4]: 56% | effect on hydroxylamine (NH2OH) oxidation, in words ([4]; 30 minutes assay, listed as DMP): reduced NH2OH oxidation; also recorded: limited effect | Nitrification from NH3 (% compared to DMSO) [4]: 27% | IC50 [3]: 14 µM | activity at 100 µM [3]: 0%

O=C(CSC1=NCCS1)N1CCCC1 [Example 10]
IC50 [1]: > 100 µM | activity at 100 µM [1]: 81% | inhibition of ammonium consumption in soil, in words [2]: significant inhibition | inhibition at 50 µM [2]: 7% | IC50 [3]: < 10 µM | activity at 100 µM [3]: 6%

CN(Cc1c(F)cccc1Cl)CN1CCOC1=S [Example 6, 3-[[(2-chloro-6-fluorophenyl)methyl-methylamino]methyl]-1,3-oxazolidine-2-thione]
nitrification inhibition, in words [1]: strong nitrification inhibition | IC50 [1]: 14 µM | activity at 100 µM [1]: 0% | Nitrification from NH2OH (% compared to DMSO) [4]: 80% | Nitrification from NH3 (% compared to DMSO) [4]: 18% | nitrification inhibition, in words [3]: strong nitrification inhibition | IC50 [3]: < 3.5 µM | activity at 100 µM [3]: 0%
